Reference: patent US12447154B2, “Use of pyrrolopyrimidine compound for treating hemophagocytic syndrome” (CHIA TAI TIANQING PHARMACEUTICAL GROUP CO., LTD., priority 2020, dated 2025)

System: patient diagnosed with hemophagocytic syndrome
Experiment: Clinical protocol for hemophagocytic syndrome (patient cases)
Assay type: in vivo, human
Procedure: Example 1. Clinical Protocol for Hemophagocytic Syndrome
Method of administration: orally administered once before breakfast in the morning and once after 12 h, with 28 consecutive days of administration as one treatment cycle.
Drug: the compound of formula I in 5 mg or 20 mg tablets, the compound of formula I being shown as its stereoisomer, a compound of formula II
[drawing 5] 1.2. Inclusion Criteria • 1) Age ≥18 years; ECOG scoring: 0-3; an expected survival of more than 3 months; • 2) A patient unambiguously diagnosed as having a first occurrence or first recurrence of HLH according to the HLH-2004 criteria; • 3) Other medication for HLH, if any, has been interrupted for 2 weeks or more; it has been 4 weeks or more since major surgery, if any; • 4) Laboratory tests should meet the following: blood routine examination: hemoglobin (Hb)≥60 g/L; absolute neutrophil count (ANC)≥0.5×10^9/L; platelet (PLT)≥30×10^9/L; liver function: serum total bilirubin (TBIL)<171 μmol/L; renal function: serum creatinine (Cr)≤1.5×ULN; blood coagulation function: activated partial thromboplastin time (APTT) and international normalized ratio (INR)≤1.5×ULN; • 5) Female patients should agree to take contraceptive measures (such as intrauterine devices [IUD], contraceptives or condoms) during the study and for at least 6 months after the study; serum pregnancy test results should be negative within 7 days before the study, and the patients must not be breastfeeding; male subjects should agree to take contraceptive measures during the study and for at least 6 months after the study; • 6) Voluntary participation, written informed consent and good compliance. 1.3. Evaluation Method
The therapeutic effect was evaluated by referring to the criteria of “2018 HLH Chinese Expert Consensus”. During induction treatment, it was recommended to evaluate the therapeutic effect every 2 weeks.
1.4. Therapeutic Effects Case 1
(§1) A patient diagnosed with hemophagocytic syndrome was given 20 mg/dose of tablets of the compound of formula II according to the administration regimen described in 1.1. The blood was tested regularly for the plasma concentration. The indexes such as blood routine examination results, biochemical profile and blood coagulation were dynamically monitored, and the patient's condition and vital signs were continuously dynamically monitored closely.
as §1, with “15” for “20”

[1] = Case 2, 15 mg/dose tablets orally twice a day, after one administration cycle

How did the disease status (Case 1, patient, 20 mg/dose tablets orally twice a day (12 h interval), after one administration cycle (28 days)) turn out when `N#CC[C@H](C1CCCC1)n1cc(-c2ncnc3[nH]ccc23)c(N)n1` [compound of formula II] was run?
Its disease status is “remained stable”.

And the “tolerability of the treatment” value (Case 1, patient, 20 mg/dose tablets orally twice a day, after one administration cycle (28 days))?
Its value is “tolerable”.

And the disease status (Case 2, patient, 15 mg/dose tablets orally twice a day (12 h interval), after one administration cycle (28 days))?
The disease status was “remained stable”.

And the ferritin level decrease [1]?
The ferritin level decrease was at least 25%.

What about the “sCD25 level decrease (factor)” value [1] of the same molecule?
The value was 3/2.

What about the “therapeutic effect evaluation (2018 HLH Chinese Expert Consensus criteria)” value [1] of the same molecule?
Its value is “partial response”.

And the “tolerability of the treatment” value [1]?
The value was “tolerable”.
